Where two headings read alike, the source gives them in different places. Starred links: 1 amine or outer side, 2 acyl side, 3 side chain; linkers in the order of their positions; H or OH if unused. Positions of bridges follow the written chain, without caps; N, C: chain ends. Non-standard residues stand in square brackets, D forms with d. Residues, ends and D or L forms follow the SMILES beside them. Triazole bridges read from a SMILES are 1,4-linked. Chains are numbered I, II in the order given. *: point of attachment. X1 = O=C(CCCC[C@@H]1SC[C@@H]2NC(=O)N[C@@H]21)NCCCOCCOCCOCCCN*; Lys(N3) = [N-]=[N+]=NCCCC[C@H](N)C(=O)O; Suc = O=C(CCC(=O)[*:2])[*:1]; dPra = C#CC[C@@H](N)C(=O)O
Columns and labels:
in vivo = details: male, CD-1, mouse
[1] = mouse, in vivo, ip, 5 mg/kg
[2] = pH 7.4
[3] = In vivo pharmacokinetics in mice (IV or IP, parallel sampling); details: for AUC% Ext: male CD-1 mice
[4] = male, CD-1, mouse, plasma, ip, 5 mg/kg
[5] = male, CD-1, mouse, plasma, iv, 1 mg/kg

In the case of CC[C@H](C)[C@@H]1NC(=O)[C@H](CC(=O)O)NC(=O)[C@@H](NC(=O)[C@H](CC(N)=O)NC(=O)[C@@H]2CCCN2C(=O)[C@H](CCC(=O)O)NC(=O)[C@@H](NC(=O)CCC(=O)NCCCOCCOCCOCCCNC(=O)CCCC[C@@H]2SC[C@@H]3NC(=O)N[C@@H]32)C(C)C)CSSC[C@@H](C(=O)N[C@@H](Cc2ccccc2)C(=O)N[C@@H](CCC(=O)O)C(=O)N[C@@H](CCCNC(=N)N)C(=O)N[C@@H](CC(C)C)C(=O)N[C@@H](CCCCn2cc(C[C@@H](N)C(=O)N[C@H](CC(C)C)C(=O)N[C@H](Cc3ccccc3)C(=O)N[C@H](CCCNC(=N)N)C(=O)N[C@H](CCC(=O)O)C(=O)N[C@H](Cc3c[nH]c4ccccc34)C(N)=O)nn2)C(=O)O)NC(=O)[C@H](CCC(=O)O)NC(=O)[C@H](Cc2c[nH]c3ccccc23)NC(=O)[C@H](CCC(=O)O)NC(=O)[C@H](Cc2c[nH]c3ccccc23)NC(=O)[C@H](CCSC)NC(=O)[C@H](C(C)C)NC(=O)[C@H](Cc2c[nH]cn2)NC1=O [Bi‐LV] (I: {X1-Suc}-VEPNCDIHVMWEWECFERL[Lys(N3)]-OH / II: H-[dPra][dL][dF][dR][dE][dW]-NH2; disulfide I:5-I:15; triazole I:20-II:1), the AUC(0-inf) (in vivo; ip, 5 mg/kg) was 2420 ng·h/mL, the AUC(0-t) (in vivo; ip, 5 mg/kg) was 2170 ng·h/mL and the Cmax (in vivo; ip, 5 mg/kg) was 3210 ng/mL. For the same molecule, the Tmax (in vivo; ip, 5 mg/kg) was 10.2 min, the half-life (in vivo; ip, 5 mg/kg) was 154 min and the AUC(0-inf) (in vivo; iv, 1 mg/kg) was 1110 ng·h/mL. For the same molecule, the AUC(0-t) (in vivo; iv, 1 mg/kg) was 1050 ng·h/mL, the Vd (in vivo; iv, 1 mg/kg) was 0.16 L/kg and the clearance (in vivo; iv, 1 mg/kg) was 15 mL/min/kg. For the same molecule, the half-life (in vivo; iv, 1 mg/kg) was 7 min, the bioavailability [1] was 41% and the “resistance to metabolic degradation by mouse liver microsomes (in words)” value [2] was “high resistance to metabolic degradation”.

For CC[C@@H](C)[C@@H](NC(=O)[C@@H](CCC(=O)O)NC(=O)[C@@H](CCC(=O)O)NC(=O)[C@H](N)Cc1cn(CCCC[C@H](NC(=O)[C@@H](Cc2c[nH]c3ccccc23)NC(=O)[C@@H](CCC(=O)O)NC(=O)[C@@H](CCCNC(=N)N)NC(=O)[C@@H](Cc2ccccc2)NC(=O)[C@@H](CC(C)C)NC(=O)[C@H](N)Cc2cn(CCCC[C@H](NC(=O)[C@H](CC(C)C)NC(=O)[C@H](CCCNC(=N)N)NC(=O)[C@H](CCC(=O)O)NC(=O)[C@H](Cc3ccccc3)NC(=O)[C@@H]3CSSC[C@H](NC(=O)[C@H](CC(N)=O)NC(=O)[C@@H]4CCCN4C(=O)[C@H](CCC(=O)O)NC(=O)[C@@H](NC(=O)CCC(=O)NCCCOCCOCCOCCCNC(=O)CCCC[C@@H]4SC[C@@H]5NC(=O)N[C@@H]54)C(C)C)C(=O)N[C@@H](CC(=O)O)C(=O)N[C@@H]([C@@H](C)CC)C(=O)N[C@@H](Cc4c[nH]cn4)C(=O)N[C@@H](C(C)C)C(=O)N[C@@H](CCSC)C(=O)N[C@@H](Cc4c[nH]c5ccccc45)C(=O)N[C@@H](CCC(=O)O)C(=O)N[C@@H](Cc4c[nH]c5ccccc45)C(=O)N[C@@H](CCC(=O)O)C(=O)N3)C(=O)O)nn2)C(=O)O)nn1)C(=O)N[C@H](CCCNC(=N)N)C(=O)N[C@H](CC(=O)O)C(N)=O [Tri‐LV] (I: {X1-Suc}-VEPNCDIHVMWEWECFERL[Lys(N3)]-OH / II: H-[dPra][dL][dF][dR][dE][dW][Lys(N3)]-OH / III: H-[dPra][dE][dE][dI][dR][dD]-NH2; disulfide I:5-I:15; triazole I:20-II:1, II:7-III:1), the “AUC% Ext” value ([3]; IP, 5 mg/kg single dose, plasma) was 2.04%, the “AUC% Ext” value ([3]; IV, 1 mg/kg single dose, plasma) was 6.49% and the AUC(0-inf) [3, 4] was 32200 ng·h/mL. For the same molecule, the AUC(0-t) [3, 4] was 31500 ng·h/mL, the Cmax [3, 4] was 19800 ng/mL and the Tmax [3, 4] was 30 min. For the same molecule, the AUC(0-inf) [3, 5] was 6490 ng·h/mL, the AUC(0-t) [3, 5] was 6070 ng·h/mL and the Vd [3, 5] was 0.0967 L/kg. The clearance [3, 5] was 2.57 mL/min/kg and the bioavailability ([3]; mouse, in vivo, ip, 5 mg/kg) was 99%.

Source: PMC6585716, “Protein catalyzed capture agents with tailored performance for in vitro and in vivo applications” (Biopolymers, 2017)
